According to PubChem BioAssay AID623948 (Vanderbilt Specialized Chemistry Center, 2012):
Calls of active or inactive are those of the source.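 How the source made its calls: active means compound shifting the acetylcholine potency curve by more than threefold; inactive means the rest.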

Target: Muscarinic acetylcholine receptor M4 (Homo sapiens) (UniProt P08173)
Test: human M4 positive allosteric modulation fold shift – CHO cells, Gqi5 chimera, calcium mobilization, mechanism study, SAR follow-up (AID 623948)
Conditions: CHO hM4/Gqi5 calcium mobilization; for outcome / fold shift: ACh fold shift; for fold shift / % ACh max: at 30 µM, stronger effect = higher value; for % ACh max: measured here: ACh max response with compound

Chain of Muscarinic acetylcholine receptor M4 (Homo sapiens) (P08173 whole entry, looked up): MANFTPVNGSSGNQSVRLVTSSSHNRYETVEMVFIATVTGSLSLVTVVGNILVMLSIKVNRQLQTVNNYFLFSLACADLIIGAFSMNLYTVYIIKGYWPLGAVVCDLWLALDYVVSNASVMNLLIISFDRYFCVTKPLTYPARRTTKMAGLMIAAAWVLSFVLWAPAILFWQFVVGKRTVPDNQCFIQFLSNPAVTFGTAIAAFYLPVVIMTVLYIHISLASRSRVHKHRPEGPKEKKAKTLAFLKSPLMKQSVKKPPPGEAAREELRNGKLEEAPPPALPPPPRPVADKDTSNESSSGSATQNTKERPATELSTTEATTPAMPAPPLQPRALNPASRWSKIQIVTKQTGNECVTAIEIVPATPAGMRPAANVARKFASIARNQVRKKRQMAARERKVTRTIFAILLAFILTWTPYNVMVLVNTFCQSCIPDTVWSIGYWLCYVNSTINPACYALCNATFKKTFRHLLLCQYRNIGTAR

In the case of `Cc1nc2sc(C(=O)NCc3cccc(F)c3F)c(N)c2c(C)c1Cl`, the outcome is reported as “active; potentiator”.
`COc1ccc(C)c2sc(NC(=O)c3cnccn3)nc12` gave a fold shift of 3.65 and a % ACh max of 110%.
In the case of `Cc1nc2sc(C(=O)NCc3ccncc3)c(N)c2c(C)c1Cl`, the outcome is reported as “active; potentiator”.
With `Cc1nc2sc(C(=O)NC3CCOCC3)c(N)c2c(C)c1Cl` the outcome was “active; potentiator”.
With `COc1ccc(C)c2sc(NC(=O)c3ccco3)nc12` the fold shift was 3.63 and the % ACh max was 112%.
`Cc1nc2sc(C(=O)NC3CC3)c(N)c2c(C)c1Cl` was tested, and the outcome was “active; potentiator”.
`Cc1nc2sc(C(=O)NCc3cccnc3)c(N)c2c(C)c1Cl` was tested, and the outcome was “active; potentiator”.
With `COc1ccc(C)c2sc(NC(=O)c3cccnc3)nc12` the fold shift was 2.93 and the % ACh max was 105%.
`Cc1nc2sc(C(=O)NCc3ccccc3)c(N)c2c(C)c1Cl` was tested, and the outcome was “active; potentiator”.
`Cc1nc2sc(C(=O)NCc3ccncn3)c(N)c2c(C)c1Cl` was tested, and the outcome was “active; potentiator”.
`Cc1nc2sc(C(=O)NCc3ccc4c(c3)OCO4)c(N)c2c(C)c1Cl` was tested, and the outcome was “active; potentiator”.
In the case of `Cc1nc2sc(C(=O)NCc3nccs3)c(N)c2c(C)c1Cl`, the outcome is reported as “active; potentiator”.
In the case of `COc1ccc(C)c2sc(NC(=O)C3=COCCO3)nc12`, the fold shift is reported as 5.98 and the % ACh max is reported as 106%.
`COc1ccc(C)c2sc(NC(=O)c3ccncc3)nc12` showed a fold shift of 14.9 and a % ACh max of 110%.
`Cc1nc2sc(C(=O)NCCc3ccncc3)c(N)c2c(C)c1Cl` was tested, and the outcome was “active; potentiator”.
